Experimental data reported in publication PMC10167036, “The discovery and characterization of AeHGO in the branching route from shikonin biosynthesis to shikonofuran in Arnebia euchroma” (Frontiers in Plant Science, 2023).

System: T1, AeHGO
T1 construct: full-length, N-terminal His-tag (pCold II), E. coli Transetta, IMAC purified, tag cut not mentioned; cloning primers encode N-terminus MGNSAE and C-terminus NTLKTA
Assay: UPLC product assay, Michaelis-Menten fit
Format: biochemical, Arnebia euchroma
Conditions: basic assay 50 mM MES-Tris pH 7.5, 37°C
Description: UPLC product assay, Michaelis-Menten fit on AeHGO

[1] = oxidation, 500 µM NADP+, apparent

SMILES	Km [1]	other results
CC(C)=CCC/C(=C/Cc1cc(O)ccc1O)CO [compound 1, (Z)-3’’-OH-GHQ]	24.7 ± 5.18 µM	–
CC(C)=CCC/C(C=O)=C\Cc1cc(O)ccc1O [compound 3, (E)-3’’-oxo-GHQ]	–	Km (reduction, 500 µM NADPH, apparent, fit at low substrate concentrations because of substrate inhibition): 9.96 ± 2.87 µM
NC(=O)c1ccc[n+]([C@@H]2O[C@H](COP(=O)(O)OP(=O)(O)OC[C@H]3O[C@@H](n4cnc5c(N)ncnc54)[C@H](OP(=O)(O)O)[C@@H]3O)[C@@H](O)[C@H]2O)c1 [NADP^+]	–	Km (oxidation, 500 µM (Z)-3''-OH-GHQ): 17.8 ± 5.62 µM
CC(C)=CCC/C(=C\Cc1cc(O)ccc1O)CO [compound 2, (E)-3’’-OH-GHQ]	18.7 ± 5.39 µM	–
